Calls of active or inactive are those of the source. The rule behind the calls is not given here.
What was measured:
[1] = target: T1, Protein cereblon/Bromodomain-containing protein 4 (Homo sapiens) (UniProt O60885+Q96SW2); test: PROTAC activity at CRBN/BRD4 in human MCF7 cells assessed as induction of BRD4 degradation at 1 uM measured after 24 hrs by Western blot analysis relative to control; type: cell-based
[2] = target: T1, Protein cereblon/Bromodomain-containing protein 4 (Homo sapiens); test: PROTAC activity at CRBN/BRD4 in human MCF7 cells assessed as induction of BRD4 degradation at 1 uM measured after 18 hrs in presence of MLN4924 by Western blot analysis; type: cell-based
[3] = target: T1, Protein cereblon/Bromodomain-containing protein 4 (Homo sapiens); test: PROTAC activity at CRBN/BRD4 in human MCF7 cells assessed as induction of BRD4 degradation at 1 uM measured after 18 hrs in presence of MG132 by Western blot analysis; type: cell-based
[4] = target: T1, Protein cereblon/Bromodomain-containing protein 4 (Homo sapiens); test: PROTAC activity at CRBN/BRD4 in human MCF7 cells assessed as induction of BRD4 degradation at 1 uM measured after 24 hrs by Western blot analysis; type: cell-based
[5] = target: T1, Protein cereblon/Bromodomain-containing protein 4 (Homo sapiens); test: PROTAC activity at CRBN/BRD4 in human MCF7 cells assessed as induction of BRD4 degradation at 1 uM measured after 18 hrs in presence of […] by Western blot analysis; type: cell-based
[6] = target: T1, Protein cereblon/Bromodomain-containing protein 4 (Homo sapiens); test: PROTAC activity at CRBN/BRD4 in human MCF7 cells assessed as induction of BRD4 degradation measured after 6 to 24 hrs by Western blot analysis; type: cell-based; conditions: dose <= 1.0 µM, time 6-24 hrs
[7] = Stability of the compound assessed as UV-light induced degradation measured after 30 mins by HPLC analysis; type: physicochemical; conditions: 0.5 h
[8] = target: T1, Protein cereblon/Bromodomain-containing protein 4 (Homo sapiens); test: PROTAC activity at CRBN/BRD4 in human MCF7 cells assessed as induction of BRD4 degradation at 1 uM measured after 6 to 24 hrs by Western blot analysis relative to control; type: cell-based; conditions: time 6-24 hrs

T1 sequence (Q96SW2 whole entry, looked up, other chains not shown): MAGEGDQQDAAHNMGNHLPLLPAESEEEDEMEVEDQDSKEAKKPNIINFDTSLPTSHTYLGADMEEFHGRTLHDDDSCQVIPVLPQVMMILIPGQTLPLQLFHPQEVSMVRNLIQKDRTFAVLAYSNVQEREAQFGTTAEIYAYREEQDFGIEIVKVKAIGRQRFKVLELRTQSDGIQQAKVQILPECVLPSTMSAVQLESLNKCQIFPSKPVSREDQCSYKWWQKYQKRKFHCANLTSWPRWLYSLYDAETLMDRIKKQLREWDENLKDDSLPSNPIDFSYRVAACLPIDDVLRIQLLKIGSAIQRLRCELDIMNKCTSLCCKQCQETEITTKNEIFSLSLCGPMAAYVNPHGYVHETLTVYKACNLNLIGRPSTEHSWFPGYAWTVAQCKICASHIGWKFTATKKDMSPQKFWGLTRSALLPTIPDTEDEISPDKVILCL

Row | SMILES | Activity [1] | Activity [2] | Activity [3] | Activity [4] | Activity [5] | Activity [6] | Stability [7] | Activity [8]
1 | Cc1sc2c(c1C)C(c1ccc(Cl)cc1)=N[C@@H](CC(=O)NCCCNC(=O)OCc1cc(OCCCNC(=O)CNc3cccc4c3C(=O)N(C3CCC(=O)NC3=O)C4=O)ccc1[N+](=O)[O-])c1nnc(C)n1-2 (some centres undefined) | > 80% | inactive | inactive | Active | inactive | – | – | –
2 | Cc1sc2c(c1C)C(c1ccc(Cl)cc1)=N[C@@H](CC(=O)NCCCNC(=O)OCc1cc(OCCCNc3cccc4c3C(=O)N(C3CCC(=O)NC3=O)C4=O)ccc1[N+](=O)[O-])c1nnc(C)n1-2 (some centres undefined) | > 80% | inactive | inactive | Active | inactive | Dose-Dependent Effect | Unstable | > 80%
3 | Cc1sc2c(c1C)C(c1ccc(Cl)cc1)=N[C@@H](CC(=O)NCCNC(=O)OCc1cc(OCCCNc3cccc4c3C(=O)N(C3CCC(=O)NC3=O)C4=O)ccc1[N+](=O)[O-])c1nnc(C)n1-2 (some centres undefined) | > 80% | inactive | inactive | Active | inactive | Dose-Dependent Effect | – | –
